Experimental data from patent publication US20260167662A1, “MODIFIED […] GUANIDINO STRUCTURE IN BRIDGED PART AND METHOD FOR PRODUCING OLIGO[…] SAME” (LUXNA BIOTECH CO., LTD., priority 2022, published 2026).

Test: Stability test of amidite: 0.1 M solution in acetonitrile stored in the dark at room temperature, analysed by UHPLC
Assay type: physicochemical
Conditions: 0.1 M in acetonitrile
Procedure: • Device used: ACQUITY Arc UHPLC system manufactured by Waters Corporation • Column: Xbridge BEH C18, 2.5 μm, 3.0×100 mm, Column XP manufactured by Waters Corporation • Mobile phase: Gradient
• Flow rate: 0.85 mL/min • Detection: PDA (200 to 400 nm) • Column temperature: 30° C. • Analysis time: 10.00 min
The amidite a3 (purity was 96.3%) obtained in Example 1, and an amidite a3′ (purity was 90.9%) synthesized according to the method described in Patent Document 5 were each dissolved in acetonitrile to prepare a 0.1 M solution.
Of the two 0.1 M solutions obtained, the solution containing the amidite a3 of Example 1 was stored in the dark at room temperature for 7 days. On the other hand, the solution containing the amidite a3′ of Patent Document 5 was stored in the dark at room temperature for 17 hours.
The UHPLC results of the amidites a3 and a3′ contained respectively in the stored solutions are shown in Tables 7 and 8, and the UHPLC-MS results of the amidites a3 and a3′ contained respectively in the stored solutions are shown in FIGS. 12 and 13.

SMILES | % Area of main UHPLC peak after storage (stored for 17 hours, retention time 5.866 min, purity before storage 90.9%) [%] | % Area of main UHPLC peak after storage (stored for 7 days, retention time 7.335 min, purity before storage 96.3%) [%] | Stability in stored solution, compared by UHPLC peaks (a3 stored 7 days versus a3′ stored 17 hours)
COc1ccc(C(OC[C@@]23CN(/C(=N/C(=O)OCC4c5ccccc5-c5ccccc54)NC(C)(C)C)C([C@H](n4cc(C)c(=O)[nH]c4=O)O2)[C@H]3OP(OCCC#N)N(C(C)C)C(C)C)(c2ccccc2)c2ccc(OC)cc2)cc1 (stereo partly drawn) [amidite a3′, reference compound] | 76.00 |  | 
COc1ccc(C(OC[C@]23CN(/C(=N/C(=O)OCC4c5cc(C(C)(C)C)ccc5-c5ccc(C(C)(C)C)cc54)NC(C)(C)C)C(C2OP(OCCC#N)N(C(C)C)C(C)C)[C@H](n2cc(C)c(=O)[nH]c2=O)O3)(c2ccccc2)c2ccc(OC)cc2)cc1 (stereo partly drawn) [amidite a3, di-tBu-Fmoc-GuNA[t-Bu]-T amidite] |  | 95.21 | more stable
